Assay results as given in the NIST ThermoML archive (doi:10.1021/acs.jced.7b00297).
Numbers after ± are expanded uncertainties.

Experiment: mn = molality of the nth substance listed, in mol/kg
Settings: 84.5 kPa, Liquid; for speed of sound: Single path-length method; for mass density: Vibrating tube method

CCCCCCn1cc[n+](C)c1.[Cl-] [1-hexyl-3-methylimidazolium chloride] + O
Settings	mass density, 288.15 K [kg/m3]	mass density, 298.15 K [kg/m3]	mass density, 308.15 K [kg/m3]	mass density, 318.15 K [kg/m3]	speed of sound, 288.15 K [m/s]	speed of sound, 298.15 K [m/s]	speed of sound, 308.15 K [m/s]	speed of sound, 318.15 K [m/s]
m1 = 0.0096	999.203 ± 4	997.128 ± 4	994.101 ± 4	990.268 ± 4	1468.2 ± 1	1498.2 ± 1	1521.1 ± 1	1537.6 ± 1
m1 = 0.0296	999.412 ± 4	997.304 ± 4	994.252 ± 4	990.4 ± 4	1471.7 ± 1	1501.3 ± 1	1523.7 ± 1	1539.8 ± 1
m1 = 0.0585	999.713 ± 4	997.562 ± 4	994.471 ± 4	990.58 ± 4	1476.8 ± 1	1505.7 ± 1	1527.4 ± 1	1543 ± 1
m1 = 0.0734	999.867 ± 4	997.692 ± 4	994.583 ± 4	990.681 ± 4	1479.4 ± 1	1507.9 ± 1	1529.3 ± 1	1544.6 ± 1
m1 = 0.0999	1000.15 ± 4	997.932 ± 4	994.787 ± 4	990.859 ± 4	1483.9 ± 1	1511.7 ± 1	1532.6 ± 1	1547.3 ± 1
m1 = 0.1212	1000.37 ± 4	998.125 ± 4	994.95 ± 4	990.996 ± 4	1487.4 ± 1	1514.8 ± 1	1535.2 ± 1	1549.6 ± 1
m1 = 0.1542	1000.73 ± 4	998.421 ± 4	995.204 ± 4	991.215 ± 4	1493 ± 1	1519.5 ± 1	1539.2 ± 1	1553 ± 1
m1 = 0.2244	1001.47 ± 4	999.058 ± 4	995.748 ± 4	991.681 ± 4	1504 ± 1	1528.9 ± 1	1547.3 ± 1	1559.8 ± 1
m1 = 0.2863	1002.12 ± 4	999.62 ± 4	996.227 ± 4	992.089 ± 4	1513.8 ± 1.1	1537.3 ± 1.1	1554.3 ± 1	1565.8 ± 1
m1 = 0.469	1004.08 ± 4	1001.27 ± 4	997.628 ± 4	993.281 ± 4	1540.2 ± 1.1	1559.7 ± 1.1	1573.2 ± 1.1	1581.6 ± 1.1
m1 = 0.8901	1008.38 ± 4	1004.89 ± 4	1000.7 ± 4	995.899 ± 4	1591.4 ± 1.1	1602.4 ± 1.1	1608.7 ± 1.1	1610.9 ± 1.1
